We go through 13 compounds from PubChem BioAssay (NCI).

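Each compound was tested at five concentrations against cells in 96-well plates for 48 hours. TGI: total growth inhibition.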 Bounds are passed on as bounds.

What all share (test): NCI-60 cell line screen, 48 h
The test system of experiment [1] is SN12C renal.
Experiment [2] has as its system EKVX NSCLC.
Experiment [3] deals with ACHN renal.
In experiment [4] the test system is 786-0 renal.
The subject of experiment [5] is NCI/ADR-RES ovarian.
Experiment [6] relates to SR leukemia.
For experiment [7], the system named is CCRF-CEM leukemia.
Experiment [8] concerns HOP-62 NSCLC.
Experiment [9] deals with SNB-19 CNS.
Experiment [10] has as its system PC-3 prostate.
In experiment [11] the test system is K-562 leukemia.

As to `O=C(c1ccccn1)C1(N2CCCCC2)CCCCC1`, the TGI in experiment [1], in experiment [2], in [3], in [4], in experiment [5] and in experiment [6] was more than 100 µM in each case. In addition, the TGI in experiment [7], in experiment [8], in experiment [9], in experiment [10] and in [11] was more than 100 µM in each case.

Regarding `NC(N)=Nc1ccc(CC(N)NCC(=O)O)cc1` (stereo not drawn), the TGI in experiment [1], in [2], in [3], in [4], in experiment [5] and in [6] was more than 25 µM each time. The TGI in experiment [7], in experiment [8], in experiment [10] and in experiment [11] was more than 25 µM each time.

For the compound `O=[N+]([O-])c1cc(C=NC23CC4CC(CC(C4)C2)C3)ccc1Cl`, the TGI in experiment [1] was 35.2 µM; in [2], more than 61.8 µM; in [3], 56.9 µM; in experiment [4], 41.2 µM; in experiment [5], 70.9 µM; in experiment [6] it was 12.9 µM. The TGI in [7] was 7.97 µM; in [8], 17.7 µM; in [9], more than 58.5 µM; in experiment [10], 47.5 µM; in [11], more than 43.6 µM.

Take `Nn1c(-c2ccccc2)n[nH]c1=O`: the TGI in [1], in experiment [2], in experiment [3], in [4], in [5] and in [6] was more than 100 µM each time. Also, the TGI in experiment [7], in [8], in experiment [9] and in [10] was more than 100 µM in each case.

As for `CC1(C)O[C@H]2OC(CO[Si](C)(C)C(C)(C)C)C(N=[N+]=[N-])[C@H]2O1` (stereo partly drawn), the TGI in experiment [1] came to 36.2 µM; in experiment [2], 39.3 µM; in experiment [3], 38.6 µM; in [4], 32.7 µM; in [5] it was 37.7 µM; in experiment [6], 32.2 µM. Also, the TGI in experiment [7] was 38.3 µM; in experiment [8] it was 34.1 µM; in [9] it was 36.1 µM; in [10], 37 µM; in experiment [11] it was 29.1 µM.

Regarding `N=c1nnc2ccc(Cl)cc2n1O`, the TGI in [1], in experiment [2], in experiment [3], in experiment [5], in experiment [6] and in experiment [7] was more than 100 µM each time. Also, the TGI in [8], in experiment [9], in experiment [10] and in experiment [11] was more than 100 µM each time.

As for `CC(C)=CCC[C@@H](C)c1c(O)c(O)c(C)c2nccnc12`, the TGI in experiment [1] is more than 100 µM; in experiment [2] it was more than 100 µM; in experiment [3], 45.2 µM; in experiment [4] it was more than 100 µM; in experiment [5], 17.7 µM; in experiment [6] it was more than 100 µM. The TGI was more than 36.5 µM in experiment [7]; more than 77.9 µM in experiment [8]; more than 100 µM in experiment [9]; more than 100 µM in [10]; more than 66.6 µM in [11].

With `Cc1ccc(NC(=O)c2ccc(OP(=O)(O)Nc3ccc(C)cc3)cc2)cc1`, the TGI in experiment [1], in experiment [2], in experiment [3], in experiment [4], in experiment [5] and in experiment [6] was more than 100 µM each time. Moreover, the TGI in experiment [7], in [8], in [9], in [10] and in experiment [11] was more than 100 µM each time.

Turning to `CC1(C(=O)O)CCC2(C)CCC3(C)C(=CC(=O)C4C5(C)CCC(O)C(C)(C)C5CCC43C)C2C1` (stereo not drawn), the TGI was more than 100 µM in [1]; more than 100 µM in experiment [2]; 42.2 µM in experiment [3]; more than 100 µM in experiment [4]; more than 100 µM in experiment [5]; 61 µM in experiment [6]. Also, the TGI was 95.9 µM in experiment [7], more than 100 µM in experiment [9] and more than 100 µM in experiment [10].

In the case of `Oc1ccc(-c2nc3ccc(Br)cc3s2)cc1`, the TGI in experiment [1] was determined as 49.6 µM; in experiment [2], 28.6 µM; in experiment [3], 62.8 µM; in experiment [5], 67.3 µM; in experiment [6], 36.2 µM; in experiment [7], 16.5 µM. Moreover, the figures for the TGI in experiment [9], in experiment [10] and in experiment [11] were 85.2 µM, 54.8 µM and 73.1 µM, respectively.

`COc1ccc(N=NC(=Nc2ccccc2)c2ccc(N(CCC#N)CCC#N)cc2)cc1`: the TGI in experiment [1], in experiment [2], in experiment [3], in experiment [4], in experiment [5] and in experiment [6] was more than 100 µM each time. The TGI in experiment [8], in experiment [9], in experiment [10] and in experiment [11] was more than 100 µM throughout.

Regarding `COc1ccc(C(=C2C=CC=C2)c2ccc(OC)cc2)cc1`, the TGI in experiment [1] was 81.3 µM; in experiment [2], more than 100 µM; in [3], more than 100 µM; in experiment [5], more than 100 µM; in experiment [6], 86.7 µM; in experiment [7], 53 µM. Besides, the TGI is more than 100 µM in [8], 74.8 µM in experiment [9], more than 100 µM in [10] and more than 100 µM in [11].

`N[C@@H](CCC(=O)NCP(=O)(O)O)C(=O)O`: the TGI in experiment [1], in experiment [2], in [3], in experiment [4], in experiment [5] and in experiment [6] was more than 100 µM in each case. Moreover, the TGI in experiment [8], in [9], in experiment [10] and in [11] was more than 100 µM throughout.
